Measurements published in ChEMBL document CHEMBL3301472, “MMV Malaria Box HIV and cytotoxicity screening”.

What was measured:
Format in all cases: toxicity, cell-based
[1] = MMV: MTT Cytotoxicity Assay Day 3 pi, U87-CD4-CCR5 cells, % cell death @ 5mM compound; conditions: human, u87-cd4-ccr5, 5000 µM
[2] = MMV: MTT Cytotoxicity Assay Day 3 pi, U87-CD4-CXCR4 cells, % cell death @ 5mM compound; conditions: human, u87-cd4-cxcr4, 5000 µM
[3] = MMV: MTT Cytotoxicity Assay Day 7 pi of Assay #6 (compound washed out Day 1 pi), U87-CD4-CCR5 cells, % cell death @ 5mM compound; conditions: human, u87-cd4-ccr5, 5000 µM
[4] = MMV: MTT Cytotoxicity Assay Day 7 pi of Assay #7 (compound washed out Day 1 pi), U87-CD4-CXCR4 cells, % cell death @ 5mM compound; conditions: human, u87-cd4-cxcr4, 5000 µM
[5] = MMV: MTT Cytotoxicity Assay Day 7 pi of Assay #10 (NO washout), U87-CD4-CCR5 cells, % cell death @ 5mM compound; conditions: human, u87-cd4-ccr5, 5000 µM
[6] = MMV: MTT Cytotoxicity Assay Day 7 pi of Assay #11 (NO washout), U87-CD4-CXCR4 cells, % cell death @ 5mM compound; conditions: human, u87-cd4-cxcr4, 5000 µM

Cc1cc(=O)oc2c1ccc1oc(C(=O)c3ccccc3)c(C)c12
% Cell Death [1]: 10 | % Cell Death [2]: 29 | % Cell Death [3]: 4 | % Cell Death [4]: -3 | % Cell Death [5]: 35 | % Cell Death [6]: -19

COc1ccc(CCN2C(=O)c3[nH]nc(-c4cc(Cl)c(C)cc4O)c3C2c2ccccc2F)cc1 (stereo not drawn)
% Cell Death [1]: 19 | % Cell Death [2]: 32 | % Cell Death [3]: -35 | % Cell Death [4]: -18 | % Cell Death [5]: 47 | % Cell Death [6]: -26

CCn1nc(-c2ccc(C(=O)OC)cc2)nc2c(=O)n(C)c(=O)nc1-2
% Cell Death [1]: 1 | % Cell Death [2]: 21 | % Cell Death [3]: 6 | % Cell Death [4]: -23 | % Cell Death [5]: -2 | % Cell Death [6]: 18

Cc1[nH]c(-c2ccc(F)cc2)cc1C(=O)NC1CCN(Cc2ccccc2)CC1
% Cell Death [1]: 65 | % Cell Death [2]: 41 | % Cell Death [3]: 52 | % Cell Death [4]: 6 | % Cell Death [5]: 44 | % Cell Death [6]: 29

COC(=O)c1ccc(Cl)c2c1C1C=CCC1C(c1cccc3ccccc13)N2 (stereo not drawn)
% Cell Death [1]: -6 | % Cell Death [2]: 40 | % Cell Death [3]: -5 | % Cell Death [4]: -20 | % Cell Death [5]: -21 | % Cell Death [6]: -34

COc1cc(-c2nc(-c3ccc(Sc4ccccc4)cc3)c(-c3ccccc3)[nH]2)cc(OC)c1O
% Cell Death [1]: 18 | % Cell Death [2]: 29 | % Cell Death [3]: 5 | % Cell Death [4]: -13 | % Cell Death [5]: 33 | % Cell Death [6]: -41

Cc1ccc(N2C3c4ccccc4N(S(=O)(=O)c4ccc(C)cc4)C2c2ccccc2N3S(=O)(=O)c2ccc(C)cc2)cc1
% Cell Death [1]: 26 | % Cell Death [2]: 37 | % Cell Death [3]: 0 | % Cell Death [4]: -17 | % Cell Death [5]: 8 | % Cell Death [6]: -39

FC(F)(F)c1cccc(Nc2nc3ccccc3nc2Nc2cccc(C(F)(F)F)c2)c1
% Cell Death [1]: -15 | % Cell Death [2]: 15 | % Cell Death [3]: 15 | % Cell Death [4]: 3 | % Cell Death [5]: 25 | % Cell Death [6]: -12

Brc1ccc(Nc2nc3ccccc3nc2Nc2ccc(Br)cc2)cc1
% Cell Death [1]: 15 | % Cell Death [2]: 20 | % Cell Death [3]: -14 | % Cell Death [4]: -10 | % Cell Death [5]: 28 | % Cell Death [6]: -26

O=c1nc(C=Cc2ccc(Br)cc2)oc2ccccc12
% Cell Death [1]: 17 | % Cell Death [2]: 23 | % Cell Death [3]: -7 | % Cell Death [4]: 24 | % Cell Death [5]: 35 | % Cell Death [6]: -17

COc1cccc(O)c1CN1CCC2(CCCN(Cc3ccc(F)cc3)C2)C1 (stereo not drawn)
% Cell Death [1]: -63 | % Cell Death [2]: -7 | % Cell Death [3]: -1 | % Cell Death [4]: 21 | % Cell Death [5]: 7 | % Cell Death [6]: 6

O=c1cc(NC2CCN(CCCc3ccccc3)CC2)c2cc(Cl)ccc2o1
% Cell Death [1]: 16 | % Cell Death [2]: 19 | % Cell Death [3]: -6 | % Cell Death [4]: 37 | % Cell Death [5]: 31 | % Cell Death [6]: -41

Cc1ccc(Nc2nc(NCCO)c3ccccc3n2)cc1C
% Cell Death [1]: -23 | % Cell Death [2]: 28 | % Cell Death [3]: 3 | % Cell Death [4]: -22 | % Cell Death [5]: 36 | % Cell Death [6]: 12

CCOC(=O)c1cn(CC)c2cc(N(C)CCc3ccc(OC)c(OC)c3)c(F)cc2c1=O
% Cell Death [1]: 22 | % Cell Death [2]: -10 | % Cell Death [3]: -4 | % Cell Death [4]: -40 | % Cell Death [5]: 27 | % Cell Death [6]: -17

COc1ccc2c(c1OC)C(=O)N1c3ccccc3N=C(c3ccc(C)cc3)CC21 (stereo not drawn)
% Cell Death [1]: 87 | % Cell Death [2]: 72 | % Cell Death [3]: 17 | % Cell Death [4]: 1 | % Cell Death [5]: 78 | % Cell Death [6]: 102

COCCN(C(=O)Cc1cccs1)C(C(=O)NCc1ccc(OC)cc1)c1ccc(C(C)C)cc1 (stereo not drawn)
% Cell Death [1]: 13 | % Cell Death [2]: 12 | % Cell Death [3]: 16 | % Cell Death [4]: -10 | % Cell Death [5]: 140 | % Cell Death [6]: 68

CCCCCn1c(=N)n(CC(O)COc2cccc(C)c2)c2ccccc21.Cl (stereo not drawn)
% Cell Death [1]: 99 | % Cell Death [2]: 71 | % Cell Death [3]: 65 | % Cell Death [4]: 60 | % Cell Death [5]: 115 | % Cell Death [6]: 110

COc1cccc(C=Cc2nc(=O)c3ccccc3o2)c1OC
% Cell Death [1]: 70 | % Cell Death [2]: 54 | % Cell Death [3]: 17 | % Cell Death [4]: -19 | % Cell Death [5]: 51 | % Cell Death [6]: 31

Cc1cc(N2CCCC2)nc(Nc2ccc(NC(=O)CCc3ccccc3)cc2)n1
% Cell Death [1]: 14 | % Cell Death [2]: 30 | % Cell Death [3]: 20 | % Cell Death [4]: -12 | % Cell Death [5]: 0 | % Cell Death [6]: -21

CCCc1c(CC)c(=N)c2ccccc2n1C
% Cell Death [1]: 33 | % Cell Death [2]: 21 | % Cell Death [3]: -10 | % Cell Death [4]: -9 | % Cell Death [5]: -7 | % Cell Death [6]: -23

c1ccc(/C2=N/c3ccccc3/N=C(/c3ccccc3)c3ccccc32)cc1
% Cell Death [1]: -3 | % Cell Death [2]: 28 | % Cell Death [3]: 0 | % Cell Death [4]: -11 | % Cell Death [5]: 16 | % Cell Death [6]: 7

Oc1ccc(Cl)cc1CNc1nc2ccccc2[nH]1
% Cell Death [1]: -44 | % Cell Death [2]: 10 | % Cell Death [3]: 10 | % Cell Death [4]: -38 | % Cell Death [5]: -8 | % Cell Death [6]: 24

CCOc1ccccc1CNC(=O)C1c2ccccc2C(=O)N(CC(C)C)C1c1cccs1 (stereo not drawn)
% Cell Death [1]: -26 | % Cell Death [2]: 12 | % Cell Death [3]: 2 | % Cell Death [4]: -26 | % Cell Death [5]: 20 | % Cell Death [6]: 4

O=C(NC1CCN(Cc2ccccc2)CC1)c1cc(C(=O)NC2CCN(Cc3ccccc3)CC2)cc(C(=O)NC2CCN(Cc3ccccc3)CC2)c1
% Cell Death [1]: 12 | % Cell Death [2]: 60 | % Cell Death [3]: 14 | % Cell Death [4]: 72 | % Cell Death [5]: 48 | % Cell Death [6]: 71

CN1C=C(c2ccc3ccccc3n2)C(c2c[nH]c3ccccc23)c2ccccc21 (stereo not drawn)
% Cell Death [1]: 94 | % Cell Death [2]: 46 | % Cell Death [3]: 13 | % Cell Death [4]: 38 | % Cell Death [5]: 161 | % Cell Death [6]: 0

O=C(Nc1ccc(N2CCN(Cc3ccccc3)CC2)cc1)c1cccs1.O=C(O)C(F)(F)F
% Cell Death [1]: -2 | % Cell Death [2]: 55 | % Cell Death [3]: 4 | % Cell Death [4]: -26 | % Cell Death [5]: 124 | % Cell Death [6]: 28

Cc1cccc(-n2ncc3c(O)nc(-n4nc(C)cc4NC(=O)c4cc5ccccc5o4)nc32)c1
% Cell Death [1]: 6 | % Cell Death [2]: 39 | % Cell Death [3]: 23 | % Cell Death [4]: 1 | % Cell Death [5]: 23 | % Cell Death [6]: 82

O=C(Nc1ccc(-c2nc3cc4ccccc4cc3[nH]2)cc1)c1cccc(Br)c1
% Cell Death [1]: 16 | % Cell Death [2]: 42 | % Cell Death [3]: 13 | % Cell Death [4]: -24 | % Cell Death [5]: 7 | % Cell Death [6]: -33

CCOc1c(Cl)cc(CNC(C)C(O)c2ccccc2)cc1OC (stereo not drawn)
% Cell Death [1]: -4 | % Cell Death [2]: 22 | % Cell Death [3]: 0 | % Cell Death [4]: -15 | % Cell Death [5]: 98 | % Cell Death [6]: -28

COc1ccccc1CNC(=O)CCn1c(=O)[nH]c2ccccc2c1=O
% Cell Death [1]: -7 | % Cell Death [2]: 12 | % Cell Death [3]: 7 | % Cell Death [4]: -15 | % Cell Death [5]: 16 | % Cell Death [6]: -16

O=C(NNc1cc(N2CCCC2)nc(N2CCCC2)n1)c1ccccc1
% Cell Death [1]: 61 | % Cell Death [2]: 29 | % Cell Death [3]: 15 | % Cell Death [4]: 53 | % Cell Death [5]: 27 | % Cell Death [6]: 8

CCOC(=O)c1c(C)n(-c2ccc(Cl)cc2)c2ccc(OC(=O)C=Cc3ccccc3)cc12
% Cell Death [1]: 18 | % Cell Death [2]: 26 | % Cell Death [3]: 4 | % Cell Death [4]: -5 | % Cell Death [5]: 2 | % Cell Death [6]: 51

COc1ccc(Br)cc1C1Nc2ccc3ccccc3c2C2=C1C(=O)CC(c1ccccc1)C2 (stereo not drawn)
% Cell Death [1]: 17 | % Cell Death [2]: 28 | % Cell Death [3]: 30 | % Cell Death [4]: -14 | % Cell Death [5]: 16 | % Cell Death [6]: -37

FC(F)(F)c1ccc(Nc2nnnc3ccccc23)cc1
% Cell Death [1]: 67 | % Cell Death [2]: 28 | % Cell Death [3]: 44 | % Cell Death [4]: -10 | % Cell Death [5]: 121 | % Cell Death [6]: 90

CC(C)(C)CC(C)(C)NCC(O)COc1ccc(Cl)cc1Cl (stereo not drawn)
% Cell Death [1]: -7 | % Cell Death [2]: 39 | % Cell Death [3]: -12 | % Cell Death [4]: -31 | % Cell Death [5]: -1 | % Cell Death [6]: 8

CCN(CC)c1ccc(NC(=O)c2cccs2)cc1
% Cell Death [1]: 94 | % Cell Death [2]: 56 | % Cell Death [3]: 18 | % Cell Death [4]: 43 | % Cell Death [5]: 106 | % Cell Death [6]: 102

O=C(Nc1ccc(Cl)c(Cl)c1)Nc1ccc(Cl)c(Cl)c1
% Cell Death [1]: 82 | % Cell Death [2]: 59 | % Cell Death [3]: 54 | % Cell Death [4]: 82 | % Cell Death [5]: 89 | % Cell Death [6]: 116

Cc1cc(Nc2ccc(OCc3ccccc3)cc2)nc2cc(O)ccc12
% Cell Death [1]: 23 | % Cell Death [2]: -46 | % Cell Death [3]: 18 | % Cell Death [4]: 6 | % Cell Death [5]: -10 | % Cell Death [6]: -7
